Data on 2 molecules can be found in the supplement of paper PMC4862054.

Common to all, as to experiment: normalised viability (% of control), CellTiter-Blue; higher = more viable cells (100 = DMSO, 0 = benzethonium chloride kill control)
Common to all, as to conditions: incubation time: 72 h

One experiment has as its system MDA-MB-453. The protocol: (§1)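 DSRT, CellTiter-Blue viability, 72 h incubation. Signal is normalised to DMSO and benzethonium chloride controls. Value is the normalised response at dose 1.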
In the next experiment the test system is SK-BR-3. The protocol:
as §1

In a further experiment the test system is CAL-148. The protocol: as §1
The test system of the next experiment is MDA-MB-231. How it is done: as §1
Another experiment has as its system CAL-51. How it is done: as §1
A further experiment has as its system HCC1599. How it is done: as §1
In a further experiment the test system is HCC1937. How it is done:
as §1

The test system of a further experiment is CAL-120. How it is done: as §1
For another experiment, the system named is DU-4475. How it is done:
as §1

For a further experiment, the system named is HCC1143. The protocol: as §1
The next experiment concerns MDA-MB-468. The protocol:
as §1

A further experiment deals with BT-474. How it is done: as §1
The next experiment concerns CAL-85-1. The protocol: as §1
A further experiment concerns MDA-MB-436. How it is done:
as §1

The next experiment relates to MFM-223. How it is done: as §1
A further experiment concerns Hs578T. How it is done:
as §1

The next experiment has as its system HDQ-P1. The protocol: as §1
A further experiment deals with BT-549. How it is done: as §1

Take `N[C@@H](Cc1ccc(N(CCCl)CCCl)cc1)C(=O)O` [Melphalan] (0.099 nM): the normalised viability came out at 97.8% with MDA-MB-453; 94% in the experiment on SK-BR-3; 112% with CAL-148; 95.1% with MDA-MB-231; 100% in the experiment with CAL-51; 96.1% in the experiment with HCC1599. The normalised viability in the experiment with HCC1937 was determined as 87.2%; in the experiment on CAL-120 it was 82.9%; in the experiment with DU-4475, 99.8%; with HCC1143, 84.7%; in the experiment on MDA-MB-468 it was 102%; in the experiment on BT-474, 85.2%. Moreover, the normalised viability in the experiment with CAL-85-1 worked out at 85.7%; in the experiment with MDA-MB-436, 89.8%; in the experiment with MFM-223, 94.3%; in the experiment on Hs578T it was 93.8%; in the experiment with HDQ-P1, 107%; with BT-549 it was 107%.
For the molecule `Cc1c(C(=O)Nc2ccc(N3C[C@@H](C)O[C@@H](C)C3)nc2)cccc1-c1ccc(OC(F)(F)F)cc1` [NVP-LDE225] (1 nM), the normalised viability came out at 108% with MDA-MB-453; 91.5% with SK-BR-3; 92.9% in the experiment with CAL-148; 98% in the experiment on MDA-MB-231; 103% in the experiment with CAL-51; 85.8% with HCC1599. Also, the normalised viability was 96.4% in the experiment on HCC1937; 93.1% with CAL-120; 102% in the experiment with DU-4475; 105% in the experiment on HCC1143; 129% in the experiment on MDA-MB-468; 109% with BT-474. For the same molecule, the normalised viability was 99.5% in the experiment on CAL-85-1; 79.5% in the experiment on MDA-MB-436; 96.4% in the experiment on MFM-223; 111% with Hs578T; 70.9% with HDQ-P1; 87.2% in the experiment with BT-549.
